pIC50: −log10 of the molar value.

The target in the assay is Histone-lysine N-methyltransferase, H3 lysine-79 specific (Homo sapiens, UniProt Q8TEK3). Nature of the assay: Inhibition of recombinant human N-terminal GST-tagged DOT1L (2 to 416 residues) expressed in Escherichia coli assessed as reduction in histone H3 lysine-N-methyltransferase activity using nucleosomes after 3 hrs in presence of SAM by AlphLisa assay.
Histone-lysine N-methyltransferase, H3 lysine-79 specific, sequence (Q8TEK3 whole entry, the tested form may be a part): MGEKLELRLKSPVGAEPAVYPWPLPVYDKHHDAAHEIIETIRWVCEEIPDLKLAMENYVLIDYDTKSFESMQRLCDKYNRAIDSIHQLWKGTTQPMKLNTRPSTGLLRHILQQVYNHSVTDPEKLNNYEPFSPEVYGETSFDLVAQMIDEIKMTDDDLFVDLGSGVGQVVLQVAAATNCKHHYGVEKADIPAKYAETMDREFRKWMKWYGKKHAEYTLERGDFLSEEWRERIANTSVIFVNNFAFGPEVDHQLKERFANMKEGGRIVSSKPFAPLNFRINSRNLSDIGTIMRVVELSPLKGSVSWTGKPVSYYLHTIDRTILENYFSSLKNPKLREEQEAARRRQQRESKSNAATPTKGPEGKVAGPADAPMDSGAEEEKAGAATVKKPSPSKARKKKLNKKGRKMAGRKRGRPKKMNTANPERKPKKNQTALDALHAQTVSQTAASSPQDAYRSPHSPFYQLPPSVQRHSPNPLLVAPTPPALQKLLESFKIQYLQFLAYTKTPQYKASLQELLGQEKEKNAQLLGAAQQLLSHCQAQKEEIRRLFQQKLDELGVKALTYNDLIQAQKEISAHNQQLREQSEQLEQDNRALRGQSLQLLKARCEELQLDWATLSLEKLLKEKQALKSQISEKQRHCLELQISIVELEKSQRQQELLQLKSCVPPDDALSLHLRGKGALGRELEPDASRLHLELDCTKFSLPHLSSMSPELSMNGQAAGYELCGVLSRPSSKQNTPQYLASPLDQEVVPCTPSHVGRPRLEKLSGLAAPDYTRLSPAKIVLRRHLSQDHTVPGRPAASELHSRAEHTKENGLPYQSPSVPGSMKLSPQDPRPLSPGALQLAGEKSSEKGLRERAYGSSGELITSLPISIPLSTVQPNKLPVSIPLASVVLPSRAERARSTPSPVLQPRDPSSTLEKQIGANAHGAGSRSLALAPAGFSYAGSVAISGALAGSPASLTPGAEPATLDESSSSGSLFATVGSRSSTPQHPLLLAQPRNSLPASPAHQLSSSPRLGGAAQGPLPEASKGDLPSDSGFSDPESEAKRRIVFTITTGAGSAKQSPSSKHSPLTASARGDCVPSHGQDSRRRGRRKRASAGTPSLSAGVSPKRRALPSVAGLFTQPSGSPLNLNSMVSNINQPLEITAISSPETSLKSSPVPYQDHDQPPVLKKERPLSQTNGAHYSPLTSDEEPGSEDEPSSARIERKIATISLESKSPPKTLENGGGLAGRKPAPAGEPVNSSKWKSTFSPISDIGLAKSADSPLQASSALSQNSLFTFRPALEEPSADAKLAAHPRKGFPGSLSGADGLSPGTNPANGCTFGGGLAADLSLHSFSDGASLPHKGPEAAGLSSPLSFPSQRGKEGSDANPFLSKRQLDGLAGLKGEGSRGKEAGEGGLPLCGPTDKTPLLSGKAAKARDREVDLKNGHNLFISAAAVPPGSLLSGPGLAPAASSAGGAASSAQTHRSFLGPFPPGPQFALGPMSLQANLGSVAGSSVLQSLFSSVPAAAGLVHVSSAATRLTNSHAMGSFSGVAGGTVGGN
Turning to `C[C@@H]([C@H]1O[C@@H](n2cnc3c(N)ncnc32)[C@H](O)[C@@H]1O)N(C1CC(CCc2nc3cc(C(C)(C)C)ccc3[nH]2)C1)C1CC(CCc2nc3cc(C(C)(C)C)ccc3[nH]2)C1` (some centres undefined), the pIC50 (commonly −log10 of the IC50, conventionally taken in molar units) was 5.67.

`CC(C)N(CCCNC(=O)Nc1ccc(C(C)(C)C)cc1)[C@@H](C)[C@H]1O[C@@H](n2cnc3c(N)ncnc32)[C@H](O)[C@@H]1O`: the pIC50 was 8.20.

For the compound `C[C@@H]([C@H]1O[C@@H](n2cnc3c(N)ncnc32)[C@H](O)[C@@H]1O)N(C1CCC1)C1CC(CCc2nc3cc(C(C)(C)C)ccc3[nH]2)C1` (some centres undefined), the pIC50 is 5.84.

On to `C[C@H](NC1CC(CCc2nc3cc(C(C)(C)C)ccc3[nH]2)C1)[C@H]1O[C@@H](n2cnc3c(N)ncnc32)[C@H](O)[C@@H]1O` (some centres undefined), for which the pIC50 is 6.16.

The values above are taken from ChEMBL document CHEMBL4043280, “Preparation of 5'-deoxy-5'-amino-5'-C-methyl adenosine derivatives and their activity against DOT1L” (Bioorg Med Chem Lett, 2017).
